Source: article PMC13393665, “Structure-based virtual screening identifies potential endogenous ligands of the human bitter taste receptor TAS2R46” (The Journal of Biological Chemistry, 2026)
Where two headings read alike, the source gives them in different places.

Legend:
Experiment in all cases: Clytin II luminescence calcium assay, HEK293
Assay type in all cases: cell-based
TAS2R46 (hTAS2R46) [1] = target: T1, TAS2R46 (hTAS2R46) (Homo sapiens, UniProt P59540)
T1 construct: full-length TAS2R46 with first 45 amino acids of SST3 fused at N-terminus; pEF-DEST51; transient in HEK293 with G-alpha16-gust44 and mitochondrial Clytin II
T1 sequence (P59540 1-309): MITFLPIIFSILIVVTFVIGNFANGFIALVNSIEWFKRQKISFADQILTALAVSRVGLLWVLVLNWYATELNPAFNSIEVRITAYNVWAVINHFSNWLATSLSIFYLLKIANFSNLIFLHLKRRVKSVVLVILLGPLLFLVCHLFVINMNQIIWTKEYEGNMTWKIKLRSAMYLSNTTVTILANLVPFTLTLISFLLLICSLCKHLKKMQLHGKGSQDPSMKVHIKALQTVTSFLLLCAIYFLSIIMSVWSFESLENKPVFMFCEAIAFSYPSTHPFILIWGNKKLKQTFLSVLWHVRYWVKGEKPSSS

TAS2R46 (hTAS2R46) [2] = target: T1, TAS2R46 (hTAS2R46); conditions: agonist; G-alpha16-gust44 co-expressed; HBSS, 10 mM HEPES pH 7.4
TAS2R46 (hTAS2R46) [3] = target: T1, TAS2R46 (hTAS2R46); conditions: agonist; G-alpha16-gust44 co-expressed; HBSS, 10 mM HEPES pH 7.4; remark: listed apart in the source

Row | SMILES | threshold (TAS2R46 (hTAS2R46) [2]) | other results
1 | CC(=O)[C@@]1(O)CC[C@H]2[C@@H]3CCC4=CC(=O)CC[C@]4(C)[C@H]3CC[C@@]21C [17-hydroxyprogesterone] | – | EC50 (TAS2R46 (hTAS2R46) [1]; read-out: EC50): 3.8 µM
2 | C[C@]12CCC(=O)C=C1CC[C@@H]1[C@@H]2CC[C@]2(C)C(=O)CC[C@@H]12 [androstenedione] | All candidate compounds, except estrone, elicited concentration-dependent responses in TAS2R46-expressing HEK293 cells | –
3 | C[C@]12CCC(=O)C=C1CC[C@@H]1[C@@H]2CC[C@@]2(C)[C@H]1CC[C@]2(O)C(=O)CO [cortexolone] | cortisol and corticosterone showed lower potency than their metabolic intermediates, deoxycorticosterone and cortexolone, respectively | –
4 | C[C@]12C[C@H](O)[C@H]3[C@@H](CCC4=CC(=O)CC[C@@]43C)[C@@H]1CC[C@@H]2C(=O)CO [corticosterone] | cortisol and corticosterone showed lower potency than their metabolic intermediates, deoxycorticosterone and cortexolone, respectively | –
5 | C[C@]12CCC(=O)C=C1CC[C@@H]1[C@@H]2[C@@H](O)C[C@@]2(C)[C@H]1CC[C@]2(O)C(=O)CO [cortisol] | cortisol and corticosterone showed lower potency than their metabolic intermediates, deoxycorticosterone and cortexolone, respectively | –
6 | C[C@]12CC[C@H](O)CC1=CC[C@@H]1[C@@H]2CC[C@]2(C)C(=O)CC[C@@H]12 [dehydroepiandrosterone] | – | EC50 (TAS2R46 (hTAS2R46) [1]; read-out: EC50): 14.9 µM
7 | C[C@]12CC[C@H]3[C@@H](CCC4=CC(=O)CC[C@@]43C)[C@@H]1CC[C@@H]2C(=O)CO [deoxycorticosterone] | cortisol and corticosterone showed lower potency than their metabolic intermediates, deoxycorticosterone and cortexolone, respectively | –
8 | C[C@]12CCC(=O)C[C@@H]1CC[C@@H]1[C@@H]2CC[C@]2(C)[C@@H](O)CC[C@@H]12 [dihydrotestosterone] | All candidate compounds, except estrone, elicited concentration-dependent responses in TAS2R46-expressing HEK293 cells | –
9 | C[C@]12CC[C@@H]3c4ccc(O)cc4CC[C@H]3[C@@H]1CCC2=O [estrone] | – | Clytin II luminescence calcium assay, HEK293 (TAS2R46 (hTAS2R46) [3]): All candidate compounds, except estrone, elicited concentration-dependent responses
10 | CC(=O)[C@H]1CC[C@H]2[C@@H]3CCC4=CC(=O)CC[C@]4(C)[C@H]3CC[C@]12C [progesterone] | – | EC50 (TAS2R46 (hTAS2R46) [1]; read-out: EC50): 7.9 µM
11 | C[C@]12CC[C@H]3[C@@H](CCC4=CC(=O)CC[C@@]43C)[C@@H]1CC[C@@H]2O [testosterone] | – | EC50 (TAS2R46 (hTAS2R46) [1]): 11.7 µM
